Patent publication US4623535A, “Leukotriene antagonists” (SmithKline Beckman Corporation, priority 1984, dated 1986)

Target: T1, leukotriene D4 (LTD4) induced contraction of guinea pig tracheal spiral strips (Cavia porcellus, UniProt Q2NNR5)
T1 construct: Guinea pig (adult male albino Hartley strain) tracheal spiral strips; from tissue; host or cells: guinea pig trachea (spiral strips, adult male albino Hartley strain)
T1 sequence (Q2NNR5 1-340): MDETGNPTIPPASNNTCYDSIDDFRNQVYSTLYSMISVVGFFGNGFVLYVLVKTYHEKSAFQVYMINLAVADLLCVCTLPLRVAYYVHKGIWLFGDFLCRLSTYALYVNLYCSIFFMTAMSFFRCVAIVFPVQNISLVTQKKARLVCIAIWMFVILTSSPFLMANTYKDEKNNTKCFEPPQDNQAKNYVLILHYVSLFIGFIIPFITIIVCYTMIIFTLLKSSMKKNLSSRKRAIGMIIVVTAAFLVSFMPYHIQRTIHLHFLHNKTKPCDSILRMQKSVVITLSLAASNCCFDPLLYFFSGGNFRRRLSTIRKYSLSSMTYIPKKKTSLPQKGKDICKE
Assay: Inhibition of leukotriene (LTD4) induced contraction of guinea pig tracheal tissues in vitro
Type: cell-based, guinea pig (adult male albino Hartley strain)
Conditions: LTD4 agonist, 30 min pretreatment with test compound, meclofenamic acid 1 μM, EC30 relative to carbachol (10 μM), read-out: In Vitro -Log KB (converted)
Method: The leukotriene antagonist activity of the compounds of this invention is measured by the ability of the compounds to inhibit the leukotriene induced contraction of guinea pig tracheal tissues in vitro. The following methodology was employed:
In vitro: Guinea pig (adult male albino Hartley strain) tracheal spiral strips of approximate dimensions 2 to 3 mm cross-sectional with and 3.5 cm length were bathed in modified Krebs buffer in jacketed 10 ml tissue bath and continuously aerated with 95% O2 /5% CO2. The tissues were connected via silk suture to force displacement transducers for recording isometric tension. The tissues were equilibrated for 1 hr., pretreated for 15 minutes with meclofenamic acid (1 μM) to remove intrinsic prostaglandin responses, and then pretreated for an additional 30 minutes with either the test compound or vehicle control. A cumulative concentration-response curve for LTD4 on triplicate tissues was generated by successive increases in the bath concentration of the LTD4. In order to minimize intertissue variability, the contractions elicited by LTD4 were standardized as a percentage of the maximum response obtained to a reference agonist, carbachol (10 μM).
Calculations: The averages of the triplicate LTD4 concentration-response curves both in the presence and absence of the test compound were plotted on log graph paper. The concentration of LTD4 needed to elicit 30% of the contraction elicited by carbachol was measured and defined as the EC30. The -log KB value for the test compound was determined by the following equations: [formula]
The antagonist activity of representative compounds of this invention is tabulated below. The -log KB values were calculated from the above test protocol.

Question: With `CCCCCCCCC#CC(SCCC(=O)O)SCCC(=O)O` [R1 = C8 H17, m = 2, n = 2, 4,6-Dithia-5-(1-decynyl)-nonanedioic acid] as the compound, how does the Kb read?
Answer: 10 µM

Question: How did the Kb turn out when `CCCCCCCCCCC#CC(SCC(=O)O)SCC(=O)O` [R1 = C10 H21, m = 1, n = 1, 3,5-dithia-4-(1-dodecynyl)-heptanedioic acid] was run?
Answer: 5.01 µM

Question: `CCCCCCCCCCC#CC(SCCC(=O)O)SCCC(=O)O` [R1 = C10 H21, m = 2, n = 2, 4,6-dithia-5-(1-dodecynyl)-nonanedioic acid] was tested. Which Kb did it give?
Answer: 0.794 µM

Question: With `CCCCCCCCCCC#CC(SCCCC(=O)O)SCCCC(=O)O` [R1 = C10 H21, m = 3, n = 3, 5,7-dithia-6-(1-dodecynyl)-undecanedioic acid] as the compound, how does the Kb read?
Answer: 3.16 µM

Question: `CCCCCCCCCCCCC#CC(SCCC(=O)O)SCCC(=O)O` [R1 = C12 H25, m = 2, n = 2, 4,6-dithia-5-(1-tetradecynyl)-nonanedioic acid] was tested. Which Kb did it give?
Answer: 2 µM
